From patent US11939314B2, “Quinolin-2-one derivatives” (MERCK PATENT GMBH, priority 2016, dated 2024)

Target: T1, c-Kit(V654A) (Homo sapiens, UniProt P10721, V654A)
T1 construct: amino acids 544-end containing the V654A mutation; GST (N)
Assay: c-Kit(V654A) assay
Format: biochemical
Details: recombinant human c-Kit aa 544-end, 200 μM ATP, 1.4E-06 means 1.4×10^−6, read-out: Inhibition (IC50) of c-KIT (V654A)
Procedure: c-Kit(V654A) (N-terminal GST-tagged, recombinant human c-Kit, amino acids 544-end containing the V654A mutation) is incubated with 8 mM MOPS pH 7.0, 0.2 mM EDTA, 250 μM GGMEDIYEFMGGKKK, 10 mM MgAcetate and [gamma-33P-ATP] (specific activity approx. 500 cpm/pmol, concentration 200 μM). The reaction is initiated by the addition of the MgATP mix. After incubation for 40 minutes at room temperature, the reaction is stopped by the addition of 3% phosphoric acid solution. 10 μL of the reaction is then spotted onto a P30 filtermat and washed three times for 5 minutes in 75 mM phosphoric acid and once in methanol prior to drying and scintillation counting.

T1 sequence (P10721 544-976 V654A): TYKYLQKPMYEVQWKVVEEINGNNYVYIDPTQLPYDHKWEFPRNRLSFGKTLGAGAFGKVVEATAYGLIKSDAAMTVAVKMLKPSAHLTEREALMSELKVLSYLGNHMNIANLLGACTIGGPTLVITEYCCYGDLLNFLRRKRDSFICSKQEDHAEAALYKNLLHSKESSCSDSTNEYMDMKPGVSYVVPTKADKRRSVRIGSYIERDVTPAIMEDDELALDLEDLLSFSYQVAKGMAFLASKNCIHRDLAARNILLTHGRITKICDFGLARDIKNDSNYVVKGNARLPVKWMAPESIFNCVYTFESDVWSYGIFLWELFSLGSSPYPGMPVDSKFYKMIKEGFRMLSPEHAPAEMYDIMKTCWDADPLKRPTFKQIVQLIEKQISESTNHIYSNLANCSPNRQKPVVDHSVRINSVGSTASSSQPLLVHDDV

Row | SMILES | IC50 [nM]
1 | O=c1[nH]c2ncccc2cc1-c1cn(-c2ccccc2)nn1 [A6, 3-(1-phenyl-1H-[1,2,3]triazol-4-yl)-1H-[1,8]naphthyridin-2-one] | 430
2 | O=c1[nH]c2ncccc2cc1-c1cn(-c2ccc(CO)cc2)nn1 [A7, 3-[1-(4-hydroxymethyl-phenyl)-1H-[1,2,3]triazol-4-yl]-1H-[1,8]naphthyridin-2-one] | 490
3 | Cc1c(-c2cn(-c3ccc(C(=O)N4CCOCC4)cc3)nn2)c(=O)[nH]c2ccccc12 [A185, 4-methyl-3-{1-[4-(morpholine-4-carbonyl)-phenyl]-1H-[1,2,3]triazol-4-yl}-1H-quinolin-2-one] | 510
4 | CN1CCN(C(=O)c2ccc(-n3cc(-c4cc5cc(F)c(F)cc5[nH]c4=O)cn3)cc2)CC1 [A304, 6,7-difluoro-3-{1-[4-(4-methyl-piperazine-1-carbonyl)-phenyl]-1H-pyrazol-4-yl}-1H-quinolin-2-one] | 16
5 | CO[C@H](C)C(=O)N(C)c1ccc(-n2cc(-c3cc4cc(F)ccc4[nH]c3=O)nn2)cc1 [A346, (R)—N-{4-[4-(6-fluoro-2-oxo-1,2-dihydro-quinolin-3-yl)-[1,2,3]triazol-1-yl]-phenyl}-2-methoxy-N-methyl-propionamide] | 16
6 | CO[C@@H]1CN[C@H](C(=O)N(C)c2ccc(-n3cc(-c4cc5cc(F)ccc5[nH]c4=O)nn3)cc2)C1 [A347, (2S,4S)-4-methoxy-pyrrolidine-2-carboxylic acid {4-[4-(6-fluoro-2-oxo-1,2-dihydro-quinolin-3-yl)-[1,2,3]triazol-1-yl]-phenyl}-methyl-amide] | 26
7 | CO[C@@H](C)C(=O)N(C)c1ccc(-n2cc(-c3cc4cc(F)ccc4[nH]c3=O)nn2)cc1 [A348, (S)—N-{4-[4-(6-fluoro-2-oxo-1,2-dihydro-quinolin-3-yl)-[1,2,3]triazol-1-yl]-phenyl}-2-methoxy-N-methyl-propionamide] | 16
8 | CO[C@H]1CCN(C(=O)c2cc(-n3cc(-c4cc5cc(F)ccc5[nH]c4=O)nn3)cs2)C1 [A350, 6-fluoro-3-{1-[5-((S)-3-methoxy-pyrrolidine-1-carbonyl)-thiophen-3-yl]-1H-[1,2,3]triazol-4-yl}-1H-quinolin-2-one] | 16
9 | CO[C@@H]1CCN(C(=O)c2cc(-n3cc(-c4cc5cc(F)ccc5[nH]c4=O)nn3)cs2)C1 [A351, 6-fluoro-3-{1-[5-((R)-3-methoxy-pyrrolidine-1-carbonyl)-thiophen-3-yl]-1H-[1,2,3]triazol-4-yl}-1H-quinolin-2-one] | 14
10 | CO[C@@H]1CCN(S(=O)(=O)c2ccc(-n3cc(-c4cc5cc(Cl)ccc5[nH]c4=O)nn3)cc2)C1 [A359, 6-chloro-3-{1-[4-((R)-3-methoxy-pyrrolidine-1-sulfonyl)-phenyl]-1H-[1,2,3]triazol-4-yl}-1H-quinolin-2-one] | 13
11 | CO[C@H]1CCN(S(=O)(=O)c2ccc(-n3cc(-c4cc5cc(Cl)ccc5[nH]c4=O)nn3)cc2)C1 [A361, 6-chloro-3-{1-[4-((S)-3-methoxy-pyrrolidine-1-sulfonyl)-phenyl]-1H-[1,2,3]triazol-4-yl}-1H-quinolin-2-one] | 11
12 | CN1CC[C@H](Oc2ccc(-n3cc(-c4cc5cc(F)c(F)cc5[nH]c4=O)nn3)cc2)C1 [A372, 6,7-difluoro-3-{1-[4-((S)-1-methyl-pyrrolidin-3-yloxy)-phenyl]-1H-[1,2,3]triazol-4-yl}-1H-quinolin-2-one] | 21
13 | CN1CC[C@@H](Oc2ccc(-n3cc(-c4cc5cc(F)c(F)cc5[nH]c4=O)nn3)cc2)C1 [A373, 6,7-difluoro-3-{1-[4-((R)-1-methyl-pyrrolidin-3-yloxy)-phenyl]-1H-[1,2,3]triazol-4-yl}-1H-quinolin-2-one] | 15

Further lines, results first:

Row | IC50 [nM] | SMILES
14 | 16 | CS(=O)(=O)[C@@H]1CCN(C(=O)c2ccc(-n3cc(-c4cc5cc(F)ccc5[nH]c4=O)nn3)cc2)C1 [A282, 6-fluoro-3-{1-[4-((R)-3-methanesulfonyl-pyrrolidine-1-carbonyl)-phenyl]-1H-[1,2,3]triazol-4-yl}-1H-quinolin-2-one]
15 | 19 | CS(=O)(=O)[C@H]1CCN(C(=O)c2ccc(-n3cc(-c4cc5cc(F)ccc5[nH]c4=O)nn3)cc2)C1 [A283, 6-fluoro-3-{1-[4-((S)-3-methanesulfonyl-pyrrolidine-1-carbonyl)-phenyl]-1H-[1,2,3]triazol-4-yl}-1H-quinolin-2-one]
16 | 17 | CS(=O)(=O)CC1CCN(C(=O)c2ccc(-n3cc(-c4cc5cc(F)ccc5[nH]c4=O)nn3)cc2)C1 (stereo not drawn) [A284, 6-fluoro-3-{1-[4-(3-methanesulfonylmethyl-pyrrolidine-1-carbonyl)-phenyl]-1H-[1,2,3]triazol-4-yl}-1H-quinolin-2-one]
17 | 5.6 | Cn1cc(C2CCCN2C(=O)c2ccc(-n3cc(-c4cc5cc(F)ccc5[nH]c4=O)nn3)cc2)cn1 (stereo not drawn) [A285, 6-fluoro-3-(1-{4-[2-(1-methyl-1H-pyrazol-4-yl)-pyrrolidine-1-carbonyl]-phenyl}-1H-[1,2,3]triazol-4-yl)-1H-quinolin-2-one]
18 | 5.1 | O=C(c1ccc(-n2cc(-c3cc4cc(F)ccc4[nH]c3=O)nn2)cc1)N1CCCC1c1cccnc1 (stereo not drawn) [A286, 6-fluoro-3-{1-[4-(2-pyridin-3-yl-pyrrolidine-1-carbonyl)-phenyl]-1H-[1,2,3]triazol-4-yl}-1H-quinolin-2-one]
19 | 25 | CN1CCN(CC2CCCN2C(=O)c2ccc(-n3cc(-c4cc5cc(F)ccc5[nH]c4=O)nn3)cc2)CC1 (stereo not drawn) [A287, 6-fluoro-3-(1-{4-[2-(4-methyl-piperazin-1-ylmethyl)-pyrrolidine-1-carbonyl]-phenyl}-1H-[1,2,3]triazol-4-yl)-1H-quinolin-2-one]
20 | 6.5 | CC1CCCN1C(=O)c1ccc(-n2cc(-c3cc4cc(F)ccc4[nH]c3=O)nn2)cc1 (stereo not drawn) [A288, 6-fluoro-3-{1-[4-(2-methyl-pyrrolidine-1-carbonyl)-phenyl]-1H-[1,2,3]triazol-4-yl}-1H-quinolin-2-one]
21 | 25 | CN1CC2(CCN(C(=O)c3ccc(-n4cc(-c5cc6cc(F)ccc6[nH]c5=O)nn4)cc3)C2)C1 [A289, 6-fluoro-3-{1-[4-(2-methyl-2,6-diaza-spiro[3.4]octane-6-carbonyl)-phenyl]-1H-[1,2,3]triazol-4-yl}-1H-quinolin-2-one]
22 | 14 | CN1CC2(CCN(C(=O)c3ccc(-n4cc(-c5cc6cc(Cl)ccc6[nH]c5=O)nn4)cc3)C2)C1 [A290, 6-chloro-3-{1-[4-(2-methyl-2,6-diaza-spiro[3.4]octane-6-carbonyl)-phenyl]-1H-[1,2,3]triazol-4-yl}-1H-quinolin-2-one]
23 | 7.5 | CN1C[C@H]2CCN(C(=O)c3ccc(-n4cc(-c5cc6cc(F)ccc6[nH]c5=O)nn4)cc3)[C@H]2C1 [A291, 6-fluoro-3-{1-[4-((3aR,6aR)-5-methyl-hexahydro-pyrrolo[3,4-b]pyrrole-1-carbonyl)-phenyl]-1H-[1,2,3]triazol-4-yl}-1H-quinolin-2-one]
24 | 7.7 | CN1CCN(C(=O)c2ccc(-n3cc(-c4cc5cc(Cl)ccc5[nH]c4=O)cn3)cc2)CC1 [A305, 6-chloro-3-{1-[4-(4-methyl-piperazine-1-carbonyl)-phenyl]-1H-pyrazol-4-yl}-1H-quinolin-2-one]
25 | 9.2 | CN(C)C1CN(C(=O)c2ccc(-n3cc(-c4cc5cc(F)ccc5[nH]c4=O)nn3)cc2)CC1(F)F (stereo not drawn) [A339, 3-{1-[4-(4-dimethylamino-3,3-difluoro-pyrrolidine-1-carbonyl)-phenyl]-1H-[1,2,3]triazol-4-yl}-6-fluoro-1H-quinolin-2-one]
26 | 51 | CN1CCC(C(=O)N(C)c2ccc(-n3cc(-c4cc5cc(F)ccc5[nH]c4=O)nn3)cc2)CC1 [A349, 1-methyl-piperidine-4-carboxylic acid {4-[4-(6-fluoro-2-oxo-1,2-dihydro-quinolin-3-yl)-[1,2,3]triazol-1-yl]-phenyl}-methyl-amide]
27 | 19 | CO[C@@H]1CCN(S(=O)(=O)c2ccc(-n3cc(-c4cc5cc(F)ccc5[nH]c4=O)nn3)cc2)C1 [A358, 6-fluoro-3-{1-[4-((R)-3-methoxy-pyrrolidine-1-sulfonyl)-phenyl]-1H-[1,2,3]triazol-4-yl}-1H-quinolin-2-one]
28 | 22 | CO[C@H]1CCN(S(=O)(=O)c2ccc(-n3cc(-c4cc5cc(F)ccc5[nH]c4=O)nn3)cc2)C1 [A360, 6-fluoro-3-{1-[4-((S)-3-methoxy-pyrrolidine-1-sulfonyl)-phenyl]-1H-[1,2,3]triazol-4-yl}-1H-quinolin-2-one]
29 | 16 | CO[C@@H]1CCC[C@H]1Oc1ccc(-n2cc(-c3cc4cc(F)ccc4[nH]c3=O)nn2)cc1 [A362, 6-fluoro-3-{1-[4-((1S,25)-2-methoxy-cyclopentyloxy)-phenyl]-1H-[1,2,3]triazol-4-yl}-1H-quinolin-2-one]
30 | 21 | O=c1[nH]c2ccc(F)cc2cc1-c1cn(-c2ccc(OC3CCCC3)cc2)nn1 [A364, 3-[1-(4-cyclopentyloxy-phenyl)-1H-[1,2,3]triazol-4-yl]-6-fluoro-1H-quinolin-2-one]
31 | 17 | CN1CCC(Cc2ccc(-n3cc(-c4cc5cc(Cl)ccc5[nH]c4=O)nn3)cc2)CC1 [A374, 6-chloro-3-{1-[4-(1-methyl-piperidin-4-ylmethyl)-phenyl]-1H-[1,2,3]triazol-4-yl}-1H-quinolin-2-one]
32 | 9.5 | CN1CCC(Oc2ccc(-n3cc(-c4cc5cc(F)ccc5[nH]c4=O)nn3)cc2)CC1 [A375, 6-fluoro-3-{1-[4-(1-methyl-piperidin-4-yloxy)-phenyl]-1H-[1,2,3]triazol-4-yl}-1H-quinolin-2-one]
33 | 4.9 | CN1CCC(Oc2ccc(-n3cc(-c4cc5cc(Cl)ccc5[nH]c4=O)nn3)cc2)CC1 [A376, 6-chloro-3-{1-[4-(1-methyl-piperidin-4-yloxy)-phenyl]-1H-[1,2,3]triazol-4-yl}-1H-quinolin-2-one]
